Test results: US12612386B2, “Heteroaryl-triazole compounds as pesticides” (Bayer Aktiengesellschaft, priority 2020, dated 2026)

Experiments:
Format in all cases: in vivo
[1] = test system: green peach aphid (Myzus persicae); experiment: Myzus persicae spray test (MYZUPE); conditions: 120 h, 100 g/ha, after 5 days
Summary of the method: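 Percent aphid kill, with 0% meaning none killed, was read 5 days after spraying. The preparation (acetone–DMF solvent, water with 1000 ppm emulsifier) was applied to Brassica pekinensis leaf disks carrying mixed-instar green peach aphids.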

[2] = test system: cattle tick larvae (Rhipicephalus microplus), strain Parkhurst, resistant against synthetic pyrethroids; experiment: Rhipicephalus (Boophilus) microplus in-vitro contact test, larval cattle tick; conditions: 5 μg/cm^2 (=500 g/ha), after 48 hours
Description: Rhipicephalus (Boophilus) Microplus—In-Vitro Contact Tests Larval Cattle Tick (Strain Parkhurst, Resistant Against Synthetic Pyrethroids)
(§1) 9 mg compound is solved in 1 mL acetone and diluted with acetone to the desired concentration. 250 μL of the test solution is filled in 25 mL glass test tubes and homogeneously distributed on the inner walls by rotation and tilting on a shaking device (2 h at 30 rpm). With a compound concentration of 900 ppm, an inner surface of 44.7 cm^2 and a homogeneous distribution, a dose of 5 μg/cm^2 is achieved.
After the solvent has evaporated, each test tube is filled with 20-50 cattle tick larvae (Rhipicephalus microplus), closed with a perforated lid and incubated in a horizontal position at 85% relative humidity and 27° C. in an incubator. After 48 hours efficacy is determined. The larvae are patted on the ground of the tubes and negative geotactic behavior is recorded.
An efficacy of 100% means all larvae are dead or moribund; 0% means no larvae are dead or moribund.

[3] = test system: larvae of the banded cucumber beetle (Diabrotica balteata); experiment: Diabrotica balteata spray test; conditions: 168 h, 100 g/ha (=32 μg/well), after 7 days, read-out: efficacy (seedling growth)
Summary of the method: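 Efficacy is seedling survival after 7 days, where 0% means no seedlings grew and 100% means growth equal to untreated, uninfested controls. Wheat seedlings, germinated on agar for 1 day, were sprayed with the aqueous emulsifier dilution (acetone/DMF solvent) and then exposed to 10–20 banded cucumber beetle larvae.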

[4] = test system: fall armyworm larvae (Spodoptera frugiperda); experiment: whole plant or invertebrate; conditions: 168 h
Summary of the method: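 Percent kill of Spodoptera frugiperda caterpillars, read 7 days after infestation of dried, spray-treated Zea mays leaf pieces. Spray preparation: compound in acetone plus dimethylformamide, diluted with emulsifier-containing water.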

[5] = test system: larvae of the southern green stink bug (Nezara viridula); experiment: whole plant or invertebrate; conditions: 96 h
Summary of the method: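 Percent mortality of southern green stink bug larvae was recorded at day 4, with 100% meaning all dead. The larvae were placed on barley sprayed with the test solution. That solution was prepared from acetone/dimethylformamide concentrate diluted in emulsifier-containing water (1000 ppm).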

[6] = test system: adult cat fleas (Ctenocephalides felis); experiment: Ctenocephalides felis in-vitro contact test, adult cat flea; conditions: 5 μg/cm^2 (=500 g/ha), after 48 hours
Description: Ctenocephalides felis—In-Vitro Contact Tests Adult Cat Flea
as §1
After the solvent has evaporated, each test tube is filled with 5-10 adult cat fleas (Ctenocephalides felis), closed with a perforated lid and incubated in a lying position at room temperature and relative humidity. After 48 hours efficacy is determined. The fleas are patted on the ground of the tubes and are incubated on a heating plate at 45-50° C. for at most 5 minutes. Immotile or uncoordinated moving fleas, which are not able to escape the heat by climbing upwards, are marked as dead or moribund.
An efficacy of 100% means all fleas are dead or moribund; 0% means no fleas are dead or moribund.

[7] = test system: adult mosquitoes Aedes aegypti strain MONHEIM; experiment: Aedes aegypti test (AEDSAE surface treatment & contact assay); conditions: 24 hours after contact, read-out: efficacy (mortality); for mortality at 4 mg/m2: surface concentration 4 mg/m^2, 30 min exposure; for mortality at 20 mg/m2: surface concentration 20 mg/m^2, 30 min exposure
Description: Aedes aegypti Test (AEDSAE Surface Treatment & Contact Assay)
Solvent: Aceton+2000 ppm rapeseed oil methyl ester (RME)
This solution is pipetted onto a glazed tile and after evaporation of the acetone, adult mosquitoes of the species Aedes aegypti strain MONHEIM are placed onto the dried surface. The exposure time is 30 minutes. Mortality in percent (%) is determined 24 hours after contact of the insects to the treated surface. 100% mortality means that all tested insects are dead, whereas 0% means that no insect died.

[8] = test system: adult brown dog ticks (Rhipicephalus sanguineus); experiment: Rhipicephalus sanguineus in-vitro contact test, adult brown dog ticks; conditions: 48 h, read-out: efficacy (ticks dead or moribund)
Description: Rhipicephalus sanguineus—In-Vitro Contact Tests with Adult Brown Dog Ticks
as §1
After the solvent has evaporated, each test tube is filled with 5-10 adult brown dog ticks (Rhipicephalus sanguineus), closed with a perforated lid and incubated in a lying position at room temperature and relative humidity. After 48 hours efficacy is determined. The ticks are patted on the ground of the tubes and are incubated on a heating plate at 45-50° C. for at most 5 minutes. Immotile or uncoordinated moving ticks, which are not able to escape the heat by climbing upwards, are marked as dead or moribund.
An efficacy of 100% means all ticks are dead or moribund; 0% means no ticks are dead or moribund.

[9] = test system: brown planthopper (Nilaparvata lugens); experiment: Nilaparvata lugens spray test; conditions: 96 h
Description: Nilaparvata lugens—Spray Test
• Solvent: 78.0 parts by weight of acetone • 1.5 parts by weight of dimethylformamide • Emulsifier: alkylarylpolyglycol ether
To produce a suitable preparation of active compound, 1 part by weight of active compound is mixed with the stated amount of solvents and is diluted with water, containing an emulsifier concentration of 1000 ppm, to the desired concentration. Further test concentrations are prepared by dilution with emulsifier containing water.
Rice plants (Oryza sativa) are sprayed with a preparation of the active ingredient of the desired concentration and the plants are infested with the brown planthopper (Nilaparvata lugens).
After 4 days mortality in % is determined. 100% means all planthoppers have been killed and 0% means none of the planthoppers have been killed.

| SMILES | mortality at 100 g/ha [1] | efficacy (larvae dead or moribund) [2] | pest or weed control at 32 µg/disc, 100 g/ha [3] | mortality at 100 g/ha [4] | mortality at 500 g/ha [5] | efficacy (fleas dead or moribund) [6] | mortality at 4 mg/m2 [7] | pest or weed control at 5 µg/cm2, 500 g/ha [8] | mortality at 500 g/ha [9] | mortality at 20 mg/m2 [7] | mortality at 100 g/ha [5] |
| --- | --- | --- | --- | --- | --- | --- | --- | --- | --- | --- | --- |
| C[C@H](NC(=O)c1cc(OC(F)F)cc(C2CC2)c1)c1ncnn1-c1cc(C(N)=O)ncn1 [I-66] | 90% | 100% | 100% | 100% | 100% | 90% |  |  |  |  |  |
| Cc1nc([C@H](C)NC(=O)c2cc(Cl)cc(C(F)(F)F)c2)n(-c2cc(C#N)ncn2)n1 [I-41] | 100% |  | 100% | 100% | 90% |  | 80 to 100% |  |  |  |  |
| CNC(=O)c1cc(-n2nc(C)nc2[C@H](C)NC(=O)c2cc(Br)cc(Br)c2)ncn1 [I-52] |  | 100% | 100% | 100% |  | 100% |  | 100% |  |  |  |
| C[C@H](NC(=O)c1cc(Cl)cc(S(=O)(=O)C(F)(F)F)c1)c1ncnn1-c1cc(C#N)ncn1 [I-7] | 100% |  | 100% | 100% | 100% |  |  |  | 90% | 80 to 100% | 90% |
| Cc1nc([C@H](C)NC(=O)c2cc(OC(F)(F)F)cc(C3CC3)c2)n(-c2cc(C#N)ncn2)n1 [I-25] |  |  | 100% | 100% | 100% |  | 80 to 100% |  |  | 80 to 100% |  |
| CNC(=O)c1cc(-n2ncnc2[C@H](C)NC(=O)c2cc(Br)cc(Br)c2)ncn1 [I-46] | 90% | 100% | 100% | 100% | 100% | 100% |  |  |  |  |  |
| C[C@H](NC(=O)c1cc(C#N)cc(OC(F)(F)F)c1)c1ncnn1-c1cc(C#N)ncn1 [I-38] |  | 100% | 100% | 100% | 100% | 90% |  |  | 100% |  |  |
| CC(C)N(C)C(=O)c1cc(-n2ncnc2[C@H](C)NC(=O)c2cc(Br)cc(OC(F)(F)F)c2)ncn1 [I-55] | 100% | 100% | 100% | 100% |  | 100% |  | 100% |  |  |  |
| C[C@H](NC(=O)c1cc(OC(F)(F)F)cc(S(C)(=O)=O)c1)c1ncnn1-c1cc(C#N)ncn1 [I-19] | 100% |  | 100% | 100% | 100% |  | 80 to 100% |  |  | 80 to 100% | 90% |
| Cc1nc([C@H](C)NC(=O)c2cc(Br)cc(OC(F)(F)F)c2)n(-c2cc(C#N)ncn2)n1 [I-28] |  | 100% | 100% | 100% | 90% |  |  | 100% |  |  |  |
| CC(C)N(C)C(=O)c1cc(-n2ncnc2[C@H](C)NC(=O)c2cc(Br)cc(Br)c2)ncn1 [I-40] | 90% |  | 100% | 100% |  |  |  |  |  | 80 to 100% |  |
| Cc1nc([C@H](C)NC(=O)c2cc(Cl)cc(SC(F)(F)F)c2)n(-c2cc(C#N)ncn2)n1 [I-6] |  | 100% | 100% | 100% |  |  |  | 100% |  |  |  |
| C[C@H](NC(=O)c1cc(Br)cc(Br)c1)c1ncnn1-c1cc(C#N)ncn1 [I-4] |  | 100% | 100% | 100% |  |  |  | 100% |  | 80 to 100% |  |
| CC(C)N(C)C(=O)c1cc(-n2ncnc2[C@H](C)NC(=O)c2cc(OC(F)F)cc(C3CC3)c2)ncn1 [I-68] |  | 100% |  | 100% |  | 100% |  | 100% |  |  |  |
| C[C@H](NC(=O)c1cc(C(F)(F)F)cc(C(F)(F)F)c1)c1ncnn1-c1cc(C(N)=O)ncn1 [I-135] |  | 100% | 80% | 100% | 100% |  |  | 100% | 100% |  | 100% |
| C[C@H](NC(=O)c1cc(C(F)(F)F)cc(S(C)(=O)=O)c1)c1ncnn1-c1cc(C#N)ncn1 [I-2] |  | 100% | 80% |  |  |  | 80 to 100% |  |  | 80 to 100% |  |
| CC(C)N(C)C(=O)c1cc(-n2ncnc2[C@H](C)NC(=O)c2cc(Cl)cc(OC(F)(F)F)c2)ncn1 [I-56] | 90% | 100% | 100% | 100% |  | 100% |  | 100% |  |  |  |
